In ChEMBL document CHEMBL4699400, “Discovery of a novel kinase hinge binder fragment by dynamic undocking” (RSC Med Chem, 2020):
Activity calls are given as the source filed them. The rule behind the calls is not given here.

Key:
[1] = molecular target: T1, Maternal embryonic leucine zipper kinase (Homo sapiens, UniProt Q14680); assay: Displacement of kinase tracer 236 from human N-terminal His-tagged MELK (1 to 337 residues) expressed in Escherichia coli BL21 pLysS by microscale thermophoresis assay
Target sequence in this assay (Q14680 whole entry, the tested form may be a part): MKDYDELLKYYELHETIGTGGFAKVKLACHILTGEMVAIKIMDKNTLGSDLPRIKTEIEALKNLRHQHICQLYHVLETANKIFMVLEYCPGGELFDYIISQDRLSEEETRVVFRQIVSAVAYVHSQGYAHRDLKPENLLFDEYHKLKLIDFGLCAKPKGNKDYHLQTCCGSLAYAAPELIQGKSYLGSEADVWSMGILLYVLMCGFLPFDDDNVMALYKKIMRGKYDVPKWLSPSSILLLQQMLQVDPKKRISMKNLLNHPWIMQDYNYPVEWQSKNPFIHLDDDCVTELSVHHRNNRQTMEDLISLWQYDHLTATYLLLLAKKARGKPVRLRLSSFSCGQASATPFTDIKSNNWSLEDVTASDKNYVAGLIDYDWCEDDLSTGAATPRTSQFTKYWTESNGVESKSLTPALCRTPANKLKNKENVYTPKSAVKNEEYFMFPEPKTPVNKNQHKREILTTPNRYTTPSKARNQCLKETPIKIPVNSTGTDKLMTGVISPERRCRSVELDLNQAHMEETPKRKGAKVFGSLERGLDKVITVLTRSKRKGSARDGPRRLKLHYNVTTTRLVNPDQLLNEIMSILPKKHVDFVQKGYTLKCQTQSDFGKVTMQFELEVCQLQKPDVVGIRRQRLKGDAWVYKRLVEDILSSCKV

[2] = molecular target: T1, Maternal embryonic leucine zipper kinase; assay: Binding affinity to human N-terminal His-tagged MELK (1 to 337 residues) expressed in Escherichia coli BL21 pLysS at 50 uM by STD-NMR analysis
Target sequence in this assay (Q14680 whole entry, looked up, the tested form may be a part): as the sequence (Q14680 whole entry, the tested form may be a part) above

- EC50 [1]: 21.1 µM
- Ki [1]: 5.47 µM
- Activity [2]: Active
Structure (SMILES): Nc1cccc2cc[nH]c(=O)c12
